The term pIC50 denotes the IC50 on a negative log10 scale, so that one unit is a factor of ten.

One data set concerns the target T1, Cytochrome P450 1A2 (Homo sapiens, UniProt P05177).
T1 sequence (P05177 whole entry): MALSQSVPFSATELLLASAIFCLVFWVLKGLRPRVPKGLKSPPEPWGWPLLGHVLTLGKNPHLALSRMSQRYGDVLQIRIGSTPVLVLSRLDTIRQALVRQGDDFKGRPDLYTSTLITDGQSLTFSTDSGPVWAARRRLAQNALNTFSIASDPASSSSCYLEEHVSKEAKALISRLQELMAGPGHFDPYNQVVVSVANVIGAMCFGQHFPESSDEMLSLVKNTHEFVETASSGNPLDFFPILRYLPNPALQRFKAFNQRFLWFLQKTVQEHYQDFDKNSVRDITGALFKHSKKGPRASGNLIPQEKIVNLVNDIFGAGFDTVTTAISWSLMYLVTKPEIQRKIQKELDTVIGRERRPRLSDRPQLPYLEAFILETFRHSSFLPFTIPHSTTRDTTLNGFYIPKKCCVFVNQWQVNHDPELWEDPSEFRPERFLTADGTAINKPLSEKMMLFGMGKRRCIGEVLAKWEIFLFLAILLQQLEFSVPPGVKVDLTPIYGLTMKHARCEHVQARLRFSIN
The experiment in a line: Inhibition of recombinant human CYP1A2 using 7-ethyl-0-resorufin as substrate incubated for 30 mins in presence of NADPH by EROD assay.

Another data set relates to CYP1A1 versus CYP1B1. Kind of data set: Selectivity index, ratio of IC50 for inhibition of recombinant human CYP1A1 to IC50 for inhibition of recombinant human CYP1B1. The note with it: recombinant human CYP1A1 and recombinant human CYP1B1.
For another data set, the system named is CYP1A2 versus CYP1B1. Kind of data set: Selectivity index, ratio of IC50 for inhibition of recombinant human CYP1A2 to IC50 for inhibition of recombinant human CYP1B1. Conditions: recombinant human CYP1A2 and recombinant human CYP1B1.
In a further data set the target is T2, Cytochrome P450 1B1 (Homo sapiens, UniProt Q16678).
T2 sequence (Q16678 whole entry): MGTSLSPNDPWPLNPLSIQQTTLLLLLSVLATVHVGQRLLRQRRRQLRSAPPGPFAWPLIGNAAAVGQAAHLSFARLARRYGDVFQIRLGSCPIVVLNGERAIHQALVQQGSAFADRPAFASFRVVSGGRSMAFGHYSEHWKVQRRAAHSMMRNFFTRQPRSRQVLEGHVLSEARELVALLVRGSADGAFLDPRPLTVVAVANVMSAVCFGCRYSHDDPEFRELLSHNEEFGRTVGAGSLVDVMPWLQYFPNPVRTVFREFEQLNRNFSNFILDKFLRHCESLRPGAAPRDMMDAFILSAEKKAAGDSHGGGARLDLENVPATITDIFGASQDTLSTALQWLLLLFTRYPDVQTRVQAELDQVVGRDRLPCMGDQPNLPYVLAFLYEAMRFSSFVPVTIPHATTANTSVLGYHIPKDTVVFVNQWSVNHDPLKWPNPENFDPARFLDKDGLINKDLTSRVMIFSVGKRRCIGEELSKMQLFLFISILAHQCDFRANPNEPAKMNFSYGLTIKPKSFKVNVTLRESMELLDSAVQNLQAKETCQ
Kind of data set: Inhibition of recombinant human CYP1B1 using 7-ethyl-0-resorufin as substrate incubated for 30 mins in presence of NADPH by EROD assay.

Another data set concerns the target T3, Cytochrome P450 1A1 (Homo sapiens, UniProt P04798).
T3 sequence (P04798 whole entry): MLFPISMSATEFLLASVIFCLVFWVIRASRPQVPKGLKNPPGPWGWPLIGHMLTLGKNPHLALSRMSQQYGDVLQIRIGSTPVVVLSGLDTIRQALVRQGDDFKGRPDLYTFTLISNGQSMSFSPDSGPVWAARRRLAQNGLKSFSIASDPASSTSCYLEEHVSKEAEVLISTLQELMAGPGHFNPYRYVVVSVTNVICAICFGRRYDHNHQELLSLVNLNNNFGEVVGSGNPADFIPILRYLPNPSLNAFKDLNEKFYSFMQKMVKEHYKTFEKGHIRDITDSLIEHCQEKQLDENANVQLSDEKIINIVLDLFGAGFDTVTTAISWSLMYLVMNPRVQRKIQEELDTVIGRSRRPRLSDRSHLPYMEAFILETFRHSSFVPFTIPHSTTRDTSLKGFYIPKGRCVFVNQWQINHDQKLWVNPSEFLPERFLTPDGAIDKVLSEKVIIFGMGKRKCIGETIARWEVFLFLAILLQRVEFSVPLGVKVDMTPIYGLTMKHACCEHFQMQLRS
The experiment in a line: Inhibition of recombinant human CYP1A1 using 7-ethyl-0-resorufin as substrate incubated for 30 mins in presence of NADPH by EROD assay.

pIC50: −log10 of the molar value.

Consider `CCc1sc(-c2csc(Nc3cc(OC)cc(OC)c3)n2)nc1-c1ccccc1`, for which the pIC50 on Cytochrome P450 1A2 was 5.28; on Cytochrome P450 1B1 it was 7.96; at Cytochrome P450 1A1, 6.21. For the same molecule, the selectivity ratio with CYP1A1 versus CYP1B1 was determined as 56.3; in the data set on CYP1A2 versus CYP1B1, 484.
`c1cncc(-c2csc(-c3csc(Nc4ccc(N5CCOCC5)cc4)n3)n2)c1`: the pIC50 on Cytochrome P450 1A2 is 5.59; at Cytochrome P450 1B1, 7.80; on Cytochrome P450 1A1, 7.65. In addition, the selectivity ratio was found to be 1.4 in the data set on CYP1A1 versus CYP1B1 and 160 in the data set on CYP1A2 versus CYP1B1.
As for `CCc1sc(-c2csc(Nc3ccc(N4CCOCC4)cc3)n2)nc1-c1ccncc1`, the pIC50 at Cytochrome P450 1A2 was 5.46; at Cytochrome P450 1B1, 6.81; on Cytochrome P450 1A1 it was 6.82. The selectivity ratio is 0.99 in the data set with CYP1A1 versus CYP1B1 and 22.3 in the data set with CYP1A2 versus CYP1B1.
The like results for `Clc1cc(Cl)cc(Nc2nc(-c3nc(-c4ccccc4)c(-c4ccccc4)s3)cs2)c1` were, in that order, 6.42, 7.41, 5.72, 49.3 and 9.77.
The corresponding values for `Fc1ccc(-c2csc(-c3csc(Nc4ccc(N5CCOCC5)cc4)n3)n2)cc1` are 5.81, 5.79, 6.77, 0.1 and 0.97.
The like results for `Clc1cc(Cl)cc(Nc2nc(-c3nc(-c4ccccn4)cs3)cs2)c1` were, in that order, 5.27, 7.35, 6.04, 20.4 and 120.
For `COc1cc(Nc2nc(-c3nc(-c4ccccc4Cl)cs3)cs2)cc(OC)c1`, the pIC50 at Cytochrome P450 1A2 was 5.90; at Cytochrome P450 1B1 it was 8.09; on Cytochrome P450 1A1 it was 6.49. Moreover, the selectivity ratio with CYP1A1 versus CYP1B1 stood at 40; with CYP1A2 versus CYP1B1, 155.
The like results for `COc1cc(Nc2nc(-c3nc(-c4ccccc4)c(-c4ccccc4)s3)cs2)cc(OC)c1` were, in that order, under 5.00, 7.06, 6.28, 6.08 and over 116.
As to `c1ccc(-c2csc(-c3csc(Nc4ccc(N5CCOCC5)cc4)n3)n2)nc1`, the negative logarithm of the IC50 (pIC50) on Cytochrome P450 1A2 is 4.93; at Cytochrome P450 1B1, 7.89; on Cytochrome P450 1A1, 7.32. Moreover, the selectivity ratio with CYP1A1 versus CYP1B1 was found to be 3.71; with CYP1A2 versus CYP1B1 it was 905.
In the case of `Cc1sc(-c2csc(Nc3ccc(N4CCOCC4)cc3)n2)nc1-c1ccncc1`, the figures for the pIC50 on Cytochrome P450 1A2, on Cytochrome P450 1B1 and on Cytochrome P450 1A1 were 5.90, 6.69 and 6.56, respectively. In addition, the selectivity ratio in the data set with CYP1A1 versus CYP1B1 came to 1.36; with CYP1A2 versus CYP1B1 it was 6.2.
Consider `COc1cccc(-c2csc(-c3csc(Nc4ccc(N5CCOCC5)cc4)n3)n2)c1`, for which the results for the pIC50 on Cytochrome P450 1A2, on Cytochrome P450 1B1 and on Cytochrome P450 1A1 were 5.33, 7.57 and 6.50, respectively. Also, the selectivity ratio in the data set with CYP1A1 versus CYP1B1 is 11.7; in the data set on CYP1A2 versus CYP1B1 it was 174.
For `Clc1cc(Cl)cc(Nc2nc(-c3nc(-c4ccncc4)cs3)cs2)c1`, the pIC50 was 5.63 on Cytochrome P450 1A2, 7.84 on Cytochrome P450 1B1 and 5.99 at Cytochrome P450 1A1. Besides, the selectivity ratio in the data set on CYP1A1 versus CYP1B1 amounted to 70.4; in the data set on CYP1A2 versus CYP1B1, 162.
The corresponding values for `CCc1sc(-c2csc(Nc3cc(Cl)cc(Cl)c3)n2)nc1-c1ccccc1` are 6.64, 7.53, 7.00, 3.39 and 7.69.
The corresponding values for `COc1ccc(-c2csc(-c3csc(Nc4cccc(F)c4)n3)n2)cc1OC` are 7.50, 6.25, 6.68, 0.37 and 0.06.
The corresponding values for `Fc1ccccc1-c1csc(-c2csc(Nc3ccc(N4CCOCC4)cc3)n2)n1` are 5.30, 7.89, 6.96, 8.48 and 392.

The values above are taken from ChEMBL document CHEMBL5236635, “Structure-Based Drug Design and Synthesis of Novel N-Aryl-2,4-bithiazole-2-amine CYP1B1-Selective Inhibitors in Overcoming Taxol Resistance in A549 Cells” (J Med Chem, 2022).
